Values of other authors as cited in patent US20100105761A1, “TREATMENT OF PAIN THROUGH EXPRESSION OF OPIOID RECEPTORS” (priority 2006, published 2010).
Like-named read-outs stand apart in the source and are kept apart here.

Tests used:
[1] = system: masseter muscle; conditions: human
[2] = system: TMJ area; conditions: rats, dose dependent
[3] = system: masseter muscle; conditions: rat
[4] = system: μ receptor
[5] = system: TMJ; conditions: placed into the TMJ of cats
[6] = system: μ receptor; conditions: in vivo
[7] = system: μ1-site

N[C@@H](CCC(=O)O)C(=O)O [glutamate]
masseter muscle activity, female versus male [1]: evoked higher masseter muscle activity in female than males | EMG activity after injection into the TMJ area [2]: induced a prolonged increase in EMG activity | masseter muscle activity, female versus male [3]: evoked higher masseter muscle activity in female than males

CC(=O)Oc1ccc2c3c1O[C@H]1[C@@H](OC(C)=O)C=C[C@H]4[C@@H](C2)N(C)CC[C@@]341 [heroin]
antinociception in mice of the CXBX strain ([4]; CXBX strain): potently antinociceptive | antinociception in MOR-1 knockout mice, exon-1 disrupted ([4]; MOR-1 knockout, exon-1): still produce antinociception

NCCc1c[nH]cn1 [histamine]
EMG activity in the temporal, digastric and genioglossus muscles [5]: increase in electromyographic (EMG) activity

C=CCN1CC[C@]23c4c5ccc(O)c4O[C@H]2/C(=N\N)CC[C@@]3(O)[C@H]1C5 [naloxazone]
blockade of morphine-induced antinociception [6]: selectively blocked | blockade of morphine-induced respiratory depression [6]: did not block | blockade of the induction of morphine dependence [6]: did not block | effect on binding of radioligands to the μ1-site [7]: abolish the binding of radioligands

C=CCN1CC[C@]23c4c5ccc(O)c4O[C@H]2/C(=N/N=C2\CC[C@@]4(O)[C@H]6Cc7ccc(O)c8c7[C@@]4(CCN6CC=C)[C@H]2O8)CC[C@@]3(O)[C@H]1C5 [naloxonazine]
effect on binding of radioligands to the μ1-site [7]: abolish the binding of radioligands

[Cl-].[K+] [potassium chloride]
EMG activity in the temporal, digastric and genioglossus muscles [5]: increase in electromyographic (EMG) activity
